Data from patent US7351294B2, “Surface cleaner” (Reckitt Benckiser (UK) Limited, priority 1999, dated 2008).

Assays:
[1] = cited from earlier work
[2] = Activity test: decolourisation of target dye gentian violet by sensitised TiO2 sol on an overhead projector, followed by UV/Visible spectrum
Experimental: A mixture of TiO2 sol (1 ml, 1 g/L) and tris(2,2′-dipyridyl4,4′-dicarboxylate)ruthenium(II)(dichloride) (4 ml, c=3.4×10^−5M) was stirred for about 1 minute using a rotamixer. The pH was recorded then the target dye gentian violet (GV dissolved in 20% ethanol solution, 0.05 ml or 0.08 ml, 0.03 wt/v %) was added and the mixture was stirred again. The initial colour of the sensitised TiO2 sol was yellow. Addition of gentian violet produced a purple colour at pH 3 and higher. A UV/Visible spectrum was taken at this stage. The vial containing the mixture was placed onto an overhead projector (2 cm height from the glass, in order to reduce heat). A UV/Visible spectrum was used to observe the colour change over a period of time at lamda max of the Target dye (Gentian violet or crystal violet)=588 nm in the white light spectrum. (OHP used: Model Ensign. Lamp:24V-250 W-3860 lux)
In order to get quantitative data a UV/Visible spectrum was taken at different times. […]

[3] = acid conditions (pH 3); cited from earlier work

Row | Compound | Sensitising properties ([1]; pH 7 compared with lower pH) | Decolourisation on repeated addition of gentian violet (0.08 ml) ([2]; Example 19, with TiO2 sol (5 ml, 10 g/L), slower rate than on the first addition) | Activity with other light sources versus overhead projector ([2]; with TiO2 sol, daylight bulbs 40 W and 100 W, tungsten filament 35 W and 100 W, fluorescent tube 8 W) | Activity in sensitised photocatalytic oxidation of herbicides [3] | Sensitising agent for charge injection into titania ([1]; acid pH, compared to tris(2,2′-bipridyl)ruthenium (II) dichloride)
1 | [Cl-].[Cl-].[Ru+2].c1ccc(-c2ccccn2)nc1.c1ccc(-c2ccccn2)nc1.c1ccc(-c2ccccn2)nc1 [tris(2,2′-bipridyl)ruthenium (II) dichloride, reference compound] | improve |  |  |  | 
2 | tris(2,2′-bipyridyl-4,4′-dicarboxylate)ruthenium (II) dichloride |  | still decolourising on the third addition | still works with all light sources tried albeit much slower | active | superior
